Consider 3 substances from patent publication US20130143804A1, “Islet Amyloid Polypeptide Toxic Oligomer is a Biomarker of Heart or Kidney Failure in Type-2 Diabetes Mellitus” (Trustees of the University of Pennsylvania, priority 2010, published 2013).

One series has as its system rat cardiac myocytes. Briefly: Ca2+ transients in isolated rat cardiac myocytes incubated with exogenous IAPP, field stimulation. The class given is cell-based. Here is the method: FIG. 8 illustrates that exogenous IAPP oligomers increase Ca^2+ transient amplitude in isolated rat cardiac myocytes.(A) Representative experiments in a control (top panel) myocyte and a cell pre-incubated with 50 μM hIAPP (bottom panel). (B-C) Effect of rat (B) and human (C) IAPP on Ca^2+ transient amplitude. […] For each group, measurements were done on ≧6 myocytes from 3 different rats.
Rat cardiac myocytes were incubated with exogenous human (amyloidogenic) and rat (non-amyloidogenic) IAPP and measured Ca2+ transients produced by field-stimulation at various frequencies (FIG. 8A).
(§1) Oligomerization of Aβ peptides is associated with Alzheimer's disease, and Aβ and IAPP have the same molecular weight sizes and are about 40% identical at the amino acid level.

A short description of series [1]: Oligomer formation controls, dot blot with A-11 oligomer-specific antibody. The series is classed as physicochemical. Particulars: 50 μM recombinant protein incubated at room temperature for 24 hours. The text has this:
Dot blots with the A-11 antibody, which is specific for toxic oligomers, show the presence of toxic oligomers amyloidogenic entities within the heart in patients with overweight/obesity (OW/OB) and diabetes (DM) (FIG. 4). Non-failing (NF) hearts from lean (L), L-NF group (control), lack toxic oligomers. The percentage of strong A-11 immunoreactivity signals (darker dots) is somewhat larger in hearts from the patients with diabetes, which also correlates with the western blot analysis indicating rich accumulation of IAPP entities with molecular weights greater than ˜16 kDa in these hearts. Apparently, IAPP oligomers are equally present in both ischemic (ICM) and non-ischemic (DCM) hearts (FIG. 4). […] Dots on the upper, right side corner show positive (human IAPP) and negative (rat IAPP) controls for oligomer formation (50 μM recombinant protein incubated at room temperature for 24 hours) (FIG. 4). Before the test with A-11 antibody, all protein homogenate samples were incubated with Protein A-coated magnetic beads to extract IgG, a possible source of cross-reactivity.

In series [2] the test system is isolated rat cardiac myocytes. Particulars: external human IAPP; Bell et al. 1995; cited from earlier work.
Series [3] deals with sarcolemma of cardiac myocytes. Put plainly: Atomic force microscopy of sarcolemma defect depths on cardiac myocytes. The class given is cell-based. Particulars: cardiac myocytes incubated with IAPP oligomers.
Source text: FIG. 16 illustrates distribution of sarcolemma defect depths derived from AFM data.
as §1

In series [4] the test system is isolated rat cardiac myocytes. Briefly: Calcein leak from isolated rat cardiac myocytes incubated with IAPP oligomers. The class given is cell-based. Particulars: incubation for 36 hours. The text has this: (§2) The level of brain natriuretic peptide (BNP), a molecular marker of hypertrophy, is elevated (by 100±30%) in hearts from pre-diabetic HIP rats vs. age-matched control littermates and further increased with diabetes development (FIG. 12B). […] In contrast, the BNP level is not altered in pre-diabetic UCD-T2DM rats and only increases after the full development of diabetes (FIG. 12B). […] This may indicate that possible pores created in the sarcolemma may be smaller in size than the calcein molecule or significant sarcolemmal damage may require a longer time of incubation.

The test system of series [5] is sarcolemma in cardiac myocytes. Briefly: Cryo-electron microscopy of cardiac myocytes incubated with IAPP oligomers. The series is classed as cell-based. Particulars: 50 μM IAPP oligomers for 36 hours. As for the experimental part:
FIG. 13 illustrates EM images of cardiac myocytes. Control (A-B) vs. incubated with 50 μM IAPP oligomers for 36 hours (C-H).
as §2

Where [6] appears, read: 50 μM IAPP, all stimulation frequencies.

Entries after “also recorded” stand apart in the source; their conditions may differ.

On to “human IAPP: human islet amyloid polypeptide, amyloidogenic, SEQ ID NO: 1 KCNTATCATQRLANFLVHSSNNFGAILSSTNVGSNTY (KCNTATCATQLANFLVHSSNNFGAILSSTNVGSNTY; listed as Homo sapiens)”, for which the “Ca2+ transient amplitude” value is reported as “modest increase” in the series with rat cardiac myocytes (5 μM IAPP, monomeric form); “marked rise” with rat cardiac myocytes (setting [6]); “significantly increased” in the series with rat cardiac myocytes (50 μM IAPP, all stimulation frequencies, listed as Human IAPP). Besides, in series [1], the “oligomer formation (A-11 dot blot control)” value is reported as “positive”. Moreover, in series [2], the hypertrophy induction result is “induces hyperthrophy”.
On to “rat IAPP: rat islet amyloid polypeptide, non-amyloidogenic, SEQ ID NO: 2 KCNTATCATQRLANFLVRSSNNLGPVLPPTNVGSNTY (KCNTATCATQLANFLVRSSNNLGPVLPPTNVGSNTY; listed as Mus musculus)”, for which the “Ca2+ transient amplitude” value is “modest increase” with rat cardiac myocytes (5 μM IAPP, monomeric form) and “modest, not significant effect; also recorded: no further effect” in the series on rat cardiac myocytes (setting [6]). The “oligomer formation (A-11 dot blot control)” value in series [1] is recorded as “negative”.
Regarding “IAPP oligomers: exogenous oligomers that human IAPP rapidly forms at 50 μM (KCNTATCATQLANFLVHSSNNFGAILSSTNVGSNTY)”, in series [3], the “sarcolemma thinning (density of thin patches, AFM)” value is reported as “induce sarcolemma thinning; also recorded: Density of thin sarcolemma patches is higher”. Further, the “calcein leak from the cytoplasm” value in series [4] is “does not reveal release of calcein; also recorded: does not induce significant calcein leak”. The “structural modification of the sarcolemma (EM)” value in series [5] was “significant structural modification of the sarcolemma”.
